The numbers were not newly measured in PubChem BioAssay AID1259409 (Chemical Carcinogenesis Research Information System (CCRIS), 2018), which cites them from elsewhere.

For the series, the system named is rodent chemically induced tumor inhibition, incidence and multiplicity. The experiment in a line: CCRIS tumor inhibitor studies. Conditions: Route [Inhibitor]: ORAL, Species: HAMSTER.

Turning to `CC1=C(/C=C/C(C)=C/C=C/C(C)=C/C(=O)Nc2ccc(O)cc2)C(C)(C)CCC1`, the “tumour outcome (control, treated, inhibition, significance)” value is listed as 17/17 (100%), 17/17 (100%), 0%, not significant (Carcinogen: N-NITROSOBIS(2-OXOPROPLYL)AMINE [60599-38-4], DL-ETHIONINE [67-21-0], L-METHIONINE [63-68-3], Carcinogen: N-NITROSOBIS(2-OXOPROPLYL)AMINE [60599-38-4], DL-ETHIONINE [67-21-0], L-METHIONINE [63-68-3], Dose [Inhibitor]: 0, 0.01% IN DIET FOR 55 D BEGINNING ON DAY 50, 1 WK POST LAST CARCINOGEN DOSE (STUDY DURATION: 105 D), Target Tissue: Type of Lesion: PANCREATIC DUCT, CARCINOMA, Dose [Carcinogen]: 50 MG/KG BOP ONCE ON DAY 0, THEN 20 MG/KG TWICE ON DAYS 18 AND 32, 500 MG/KG DL-ETHIONINE 1X/D FOR 4 D BEGINNING ON DAY, Dose [Carcinogen]: 50 MG/KG BOP ONCE ON DAY 0, THEN 20 MG/KG TWICE ON DAYS 18 AND 32, 500 MG/KG DL-ETHIONINE 1X/D FOR 4 D BEGINNING ON DAY, Promoter: CHOLINE-DEFICIENT DIET); 7/17 (41%), 14/15 (93%), -127%, p<0.01 (Carcinogen: N-NITROSOBIS(2-OXOPROPLYL)AMINE [60599-38-4], DL-ETHIONINE [67-21-0], L-METHIONINE [63-68-3], Carcinogen: N-NITROSOBIS(2-OXOPROPLYL)AMINE [60599-38-4], DL-ETHIONINE [67-21-0], L-METHIONINE [63-68-3], Dose [Inhibitor]: 0, 0.04% IN DIET FOR 55 D BEGINNING ON DAY 50, 1 WK POST LAST CARCINOGEN DOSE (STUDY DURATION: 105 D), Target Tissue: Type of Lesion: LIVER: INTRAHEPATIC CHOLANGIOCARCINOMA, Dose [Carcinogen]: 50 MG/KG BOP ONCE ON DAY 0, THEN 20 MG/KG TWICE ON DAYS 18 AND 32, 500 MG/KG DL-ETHIONINE 1X/D FOR 4 D BEGINNING ON DAY, Dose [Carcinogen]: 50 MG/KG BOP ONCE ON DAY 0, THEN 20 MG/KG TWICE ON DAYS 18 AND 32, 500 MG/KG DL-ETHIONINE 1X/D FOR 4 D BEGINNING ON DAY, Promoter: CHOLINE-DEFICIENT DIET); 17/17 (100%), 15/15 (100%), 0%, not significant (Carcinogen: N-NITROSOBIS(2-OXOPROPLYL)AMINE [60599-38-4], DL-ETHIONINE [67-21-0], L-METHIONINE [63-68-3], Carcinogen: N-NITROSOBIS(2-OXOPROPLYL)AMINE [60599-38-4], DL-ETHIONINE [67-21-0], L-METHIONINE [63-68-3], Dose [Inhibitor]: 0, 0.04% IN DIET FOR 55 D BEGINNING ON DAY 50, 1 WK POST LAST CARCINOGEN DOSE (STUDY DURATION: 105 D), Target Tissue: Type of Lesion: PANCREATIC DUCT, CARCINOMA, Dose [Carcinogen]: 50 MG/KG BOP ONCE ON DAY 0, THEN 20 MG/KG TWICE ON DAYS 18 AND 32, 500 MG/KG DL-ETHIONINE 1X/D FOR 4 D BEGINNING ON DAY, Dose [Carcinogen]: 50 MG/KG BOP ONCE ON DAY 0, THEN 20 MG/KG TWICE ON DAYS 18 AND 32, 500 MG/KG DL-ETHIONINE 1X/D FOR 4 D BEGINNING ON DAY, Promoter: CHOLINE-DEFICIENT DIET); 4/10 (40%), 26/30 (87%), -118%, p<0.025 (Carcinogen: N-NITROSOBIS(2-OXYPROPYL)AMINE, 60599-38-4, Dose [Inhibitor]: 0.05, 0.1 OR 0.2 MILLIMOLAR/KG DIET FOR 32 WK STARTING 1 WK AFTER THE CARCINOGEN DOSE (STUDY DURATION: 33 WK), Strain/Sex: SYRIAN/FEMALE, Target Tissue: Type of Lesion: COMMON DUCT: ADENOMA, Dose [Carcinogen]: 40 MG/KG ONCE, Promoter: NONE USED); 6/10 (60%), 29/30 (97%), -62%, not significant (Carcinogen: N-NITROSOBIS(2-OXYPROPYL)AMINE, 60599-38-4, Dose [Inhibitor]: 0.05, 0.1 OR 0.2 MILLIMOLAR/KG DIET FOR 32 WK STARTING 1 WK AFTER THE CARCINOGEN DOSE (STUDY DURATION: 33 WK), Strain/Sex: SYRIAN/FEMALE, Target Tissue: Type of Lesion: GALL BLADDER: ADENOMA, Dose [Carcinogen]: 40 MG/KG ONCE, Promoter: NONE USED); 6/10 (60%), 10/30 (33%), 45%, not significant (Carcinogen: N-NITROSOBIS(2-OXYPROPYL)AMINE, 60599-38-4, Dose [Inhibitor]: 0.05, 0.1 OR 0.2 MILLIMOLAR/KG DIET FOR 32 WK STARTING 1 WK AFTER THE CARCINOGEN DOSE (STUDY DURATION: 33 WK), Strain/Sex: SYRIAN/FEMALE, Target Tissue: Type of Lesion: LIVER: ADENOMA, Dose [Carcinogen]: 40 MG/KG ONCE, Promoter: NONE USED). Also, the “tumour outcome (control, treated, inhibition, significance)” value is, setting by setting: (Carcinogen: N-NITROSOBIS(2-OXYPROPYL)AMINE, 60599-38-4, Dose [Inhibitor]: 0.05, 0.1 OR 0.2 MILLIMOLAR/KG DIET FOR 32 WK STARTING 1 WK AFTER THE CARCINOGEN DOSE (STUDY DURATION: 33 WK), Strain/Sex: SYRIAN/FEMALE, Target Tissue: Type of Lesion: LUNG: ADENOMA, Dose [Carcinogen]: 40 MG/KG, ONCE, ONE WK PRIOR TO START OF AGENT TREATMENT, Promoter: NONE USED) 3/10 (30%), 18/30 (60%), -100%, not significant; (Carcinogen: N-NITROSOBIS(2-OXYPROPYL)AMINE, 60599-38-4, Dose [Inhibitor]: 0.05, 0.1 OR 0.2 MILLIMOLAR/KG DIET FOR 32 WK STARTING 1 WK AFTER THE CARCINOGEN DOSE (STUDY DURATION: 33 WK), Strain/Sex: SYRIAN/FEMALE, Target Tissue: Type of Lesion: PANCREAS: ADENOMA, Dose [Carcinogen]: 40 MG/KG ONCE, Promoter: NONE USED) 10/10 (100%), 30/30 (100%), 0%, not significant; (Carcinogen: N-NITROSOBIS(2-OXYPROPYL)AMINE, 60599-38-4, Dose [Inhibitor]: 0.05, 0.1 OR 0.2 MILLIMOLAR/KG DIET FOR 32 WK STARTING 1 WK AFTER THE CARCINOGEN DOSE (STUDY DURATION: 33 WK), Strain/Sex: SYRIAN/FEMALE, Target Tissue: Type of Lesion: PANCREAS: CARCINOMA, Dose [Carcinogen]: 40 MG/KG ONCE, Promoter: NONE USED) 4/10 (40%), 16/30 (53%), -33%, not significant; (Carcinogen: N-NITROSOBIS(2-OXYPROPYL)AMINE, 60599-38-4, Dose [Inhibitor]: 0.05, 0.1 OR 0.2 MILLIMOLAR/KG DIET FOR 32 WK STARTING 1 WK AFTER THE CARCINOGEN DOSE (STUDY DURATION: 33 WK), Strain/Sex: SYRIAN/MALE, Target Tissue: Type of Lesion: COMMON DUCT: ADENOMA, Dose [Carcinogen]: 40 MG/KG ONCE, Promoter: NONE USED) 4/12 (33%), 20/21 (95%), -188%, not significant; (Carcinogen: N-NITROSOBIS(2-OXYPROPYL)AMINE, 60599-38-4, Dose [Inhibitor]: 0.05, 0.1 OR 0.2 MILLIMOLAR/KG DIET FOR 32 WK STARTING 1 WK AFTER THE CARCINOGEN DOSE (STUDY DURATION: 33 WK), Strain/Sex: SYRIAN/MALE, Target Tissue: Type of Lesion: GALL BLADDER: ADENOMA, Dose [Carcinogen]: 40 MG/KG ONCE, Promoter: NONE USED) 3/12 (25%), 20/21 (95%), -280%, not significant; (Carcinogen: N-NITROSOBIS(2-OXYPROPYL)AMINE, 60599-38-4, Dose [Inhibitor]: 0.05, 0.1 OR 0.2 MILLIMOLAR/KG DIET FOR 32 WK STARTING 1 WK AFTER THE CARCINOGEN DOSE (STUDY DURATION: 33 WK), Strain/Sex: SYRIAN/MALE, Target Tissue: Type of Lesion: LIVER: ADENOMA, Dose [Carcinogen]: 40 MG/KG ONCE, Promoter: NONE USED) 6/12 (50%), 7/21 (33%), 34%, not significant.
